Biological target: JMJD2C (Homo sapiens (Human), UniProt Q9H3R0)
Test: JMJD2C TR-FRET in vitro enzyme inhibition assay
Format: biochemical
Settings: 0.3 nM JMJD2C, H3K9me3 peptide, read-out: JMJ-D2C IC50
Excerpt: This assay determines the ability of a test compound to inhibit Jarid1A, Jarid1B, and JMJD2C demethylase activity. Baculovirus expressed Jarid1A (GenBank Accession #NM_001042603, AA1-1090) was purchased from BPS Bioscience (Cat #50110). Baculovirus expressed Jarid1B (GenBank Accession #NM_006618, AA 2-751) was purchased from BPS Bioscience (Cat #50121) or custom made by MolecularThroughput. Baculovirus-expressed JMJD2C (GenBank Accession #BC143571, AA 2-372) was purchased from BPS Bioscience (Cat #50105).
The ability of test compounds to inhibit the activity of JMJD2C was determined in 384-well plate format under the following reaction conditions: 0.3 nM JMJD2C, 300 nM H3K9me3-biotin labeled peptide (Anaspec cat #64360), 2 μM alpha-ketoglutaric acid in assay buffer of 50 mM HEPES, pH7.3, 0.005% Brij35, 0.5 mM TCEP, 0.2 mg/ml BSA, 50 μM sodium L-ascorbate, and 2 μM ammonium iron(II) sulfate. Reaction product was determined quantitatively by TR-FRET after the addition of detection reagent Phycolink Streptavidin-allophycocyanin (Prozyme) and Europium-anti-di-methylated histone H3 lysine 9 (H3K9me2) antibody (PerkinElmer) in the presence of 5 mM EDTA in LANCE detection buffer (PerkinElmer) at a final concentration of 50 nM and 1 nM, respectively.
The assay reaction was initiated by the following: 2 μl of the mixture of 900 nM H3K9me3-biotin labeled peptide and 6 μM alpha-ketoglutaric acid with 2 μl of 11-point serial diluted inhibitor in 3% DMSO were added to each well of the plate, followed by the addition of 2 μl of 0.9 nM JMJD2C to initiate the reaction. The reaction mixture was incubated at room temperature for 30 min, and terminated by the addition of 6 μl of 5 mM EDTA in LANCE detection buffer containing 100 nM Phycolink Streptavidin-allophycocyanin and 2 nM Europium-anti-H3K9me2 antibody. Plates were read by EnVisionMultilabel Reader in TR-FRET mode (excitation at 320 nm, emission at 615 nm and 665 nm) after 1 hr incubation at rt. A ratio was calculated (665/615) for each well and fitted to determine inhibition constant (IC50).

JMJD2C, sequence (Q9H3R0 2-372): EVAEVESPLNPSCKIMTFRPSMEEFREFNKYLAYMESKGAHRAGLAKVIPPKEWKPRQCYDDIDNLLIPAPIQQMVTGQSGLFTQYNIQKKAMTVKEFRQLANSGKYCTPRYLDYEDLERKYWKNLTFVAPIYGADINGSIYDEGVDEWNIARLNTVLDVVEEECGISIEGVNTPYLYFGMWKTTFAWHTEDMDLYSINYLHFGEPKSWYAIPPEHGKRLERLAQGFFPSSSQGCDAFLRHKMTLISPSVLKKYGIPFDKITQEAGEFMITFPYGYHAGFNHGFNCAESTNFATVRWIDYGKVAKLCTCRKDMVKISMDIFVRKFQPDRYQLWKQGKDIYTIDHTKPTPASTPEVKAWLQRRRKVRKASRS

Row | Molecule | IC50 [nM]
1 | 3-{[(6-chloro-1,2,3,4-tetra- hydronaphthalen-1-yl)methyl]- amino}pyridine-4-carboxylic acid [Example 68] | 100 to 1000
2 | 3-{[(6-chloro-1-hydroxy- 1,2,3,4-tetrahydronaphthalen- 1-yl)methyl]amino}pyridine- 4-carboxylic acid [Example 67] | 100 to 1000
3 | O=C(O)c1ccncc1NCC1CCOc2cc(F)ccc21 (stereo not drawn) [Example 65, 3-{[(7-fluoro-3,4-dihydro-2H-chromen-4-yl)methyl]amino}-pyridine-4-carhoxylic acid] | ≤ 100

Reference: patent publication US11214542B2, “Histone demethylase inhibitors” (CELGENE QUANTICEL RESEARCH, INC., priority 2012, dated 2022)
